Patent US20130326734A1, “COMPOSITIONS AND METHODS FOR CONTROLLING CARBON DIOXIDE- (CO2-) REGULATED STOMATAL APERTURES, WATER TRANSPIRATION AND WATER USE EFFICIENCY IN PLANTS” (THE REGENTS OF THE UNIVERSITY OF CALIFORNIA, priority 2011, published 2013)
Marks after values point to notes of the source that are not given here.

Experiments:
[1] = test system: intracellular pH of Arabidopsis guard cells; test: Fluorescence imaging of guard cells expressing the pH sensor Pt-GFP; assay type: cell-based
Experimental: Fluorescence imaging was performed with a TE300 inverted microscope using a TE-FM Epi-Fluorescence attachment (Nikon) as previously described (Allen et al, 2000). Fluorescence images at excitation wavelengths of 470 nm and 440 nm were taken every 2 s using light from a 75-Watt xenon short arc lamp (Osram, Germany). […] neutral density filters were used to reduce bleaching of fluorescent reporter. Metafluor software (MDS, Inc.) was used to control filter wheels, shutter and COOLSNAP™ (CoolSNAP) CCD camera from Photomerics when recording and also processing raw data. The fluorescence ratio F470/F440 of Pt-GFP was analyzed as a detection of pH shifts (Schulte et al, 2006). […]
For recording intracellular Pt-GFP fluorescence in response to changes in extracellular pH incubation buffers, the pH of incubation buffers containing 10 mM MES, 10 mM KCl and 50 μM CaCl2 at 5.0 and 7.5 was adjusted by adding Tris-HCl. […] For recording intracellular Pt-GFP fluorescence in response to constant extracellular pH and added weak acid, the perfusion buffers contained 10 mM MES, 10 mM KCl and 50 μM CaCl2, pH 5.6 supplemented with the indicated concentrations of sodium butyrate. […] Background fluorescence intensities at 470 nm were measured in regions lacking guard cells and are also shown for the corresponding experiments.

[2] = test system: S-type anion channel currents in Arabidopsis guard cell protoplasts; test: Whole-cell patch-clamp recording of S-type anion currents in guard cell protoplasts; assay type: cell-based; conditions: for current amplitude activated by bicarbonate at a voltage of −146 mV: 13.5 mM total bicarbonate; for HCO3− activated S-type anion current at a voltage of −146 mV: 11.5 mM [HCO3−]i and 2 mM [CO2]; for I (pA) at −146 mV: wild type Col-0 guard cells, pipette pH 7.1
Experimental: The interpulse period was 5 s. Liquid junction potentials (LJP) were determined using Clampex 10.0. No leak subtraction was applied for all current-voltage curves. Steady-state currents were the average currents during the last 500 ms of pulses. Detail contents of solutions are discussed, below (see “supplementary data”). Bicarbonate (CsHCO3) was freshly dissolved in the pipette solution before patch clamp experiments and pH was adjusted to the indicated values. The pipette solution was stored using air-tight precision glass syringes during patch clamp experiments to slow CO2 equilibration with the surrounding air and was not stored overnight. […] [HCO3^−] represents the free bicarbonate concentration; [CO2] represents the free CO2 concentration. […] To independently measure CO2 concentrations in the solutions at different pH values, an InPro 5000 CO2 sensor (Mettler Tolego 400, Mettler-Toledo Inc, USA) was used for dissolved CO2. The InPro 5000 sensor employs a gas permeable silicone membrane. The significance of differences between data sets was assessed by noncoupled double-tailed Student's t-test analysis. Values of P<0.05 were considered statistically significant.
For experiments analyzing effects of protons on S-type anion currents, the pipette solution contained 150 mM CsCl, 2 mM MgCl2, 6.7 mM EGTA, 0.6 mM CaCl2 (2 μM [Ca^2+]i), 5 mM Mg-ATP, 5 mM Tris-GTP, 1 mM Mes/Tris, pH 6.1. For experiments with pipette solution at pH 7.8, the pipette medium contained 150 mM CsCl, 2 mM MgCl2, 2 μM free [Ca^2+]i, 5 mM Mg-ATP, 5 mM Tris-GTP, 1 mM HEPES/Tris. Calcium affinities of EGTA and free Ca^2+ concentrations were calculated using the WEBMAXC tool (http://www.stanford.edu/-epatton/webmaxc/webmaxcE.htm), which considers pH, [ATP] and ionic conditions. The bath solution contained 30 mM CsCl, 2 mM MgCl2, 5 mM CaCl2 and 10 mM Mes/Tris, pH 5.6.

[3] = test system: Arabidopsis intact leaves; test: Stomatal conductance measurements of intact leaves in response to imposed [CO2] (Li-6400 gas exchange analyzer); assay type: in vivo
Experimental: Stomatal conductance measurements of 5-week-old plants in response to the imposed [CO2] at a light (PAR) fluence rate of 150 μmol m^−2s^−1 were conducted with a Li-6400 gas exchange analyzer with a fluorometer chamber (Li-Cor Inc.) as described-previously (Hu at al, 2010). To reduce the wilting of abi1-1 and abi1-2 mutant leaves, all plants ware analyzed with a humidifier that humidified the air surrounding plants to ˜75-85%. Relative stomatal conductance values of intact leaves were calculated by normalization relative to 365 or 400 ppm just before transition to 800 ppm [CO2]. Data shown are mean±s.e. of at least 3 leaves per genotype in the same experimental set.

[4] = test system: voltage-dependent anion channels (R-type anion channels) in Arabidopsis hypocotyl cells; conditions: Arabidopsis hypocotyl cells (Frachisse et al, 1999); cited from earlier work

O=C=O [CO2, carbon dioxide]
guard cell intracellular pH fluorescence (Pt-GFP) ([1]; CO2 bubbled in extracellular perfusion buffers repeatedly shifted from 0 ppm to 800 ppm): no clear shifts
activation of S-type anion channel currents ([2]; wild type, 2 mM intracellular free [CO2] (1.1 mM free [HCO3−]i) at pH 6.1, P>0.05): not activated
initial rate of stomatal conductance change ([3]; abi1-1 mutant plants, [CO2] shifted from 400 to 800 ppm for 30 min, ~75-85% humidity): -0.035 ± 0.007 mmol H2O m^-2 s^-1 min^-1
initial rate of stomatal conductance change ([3]; abi2-1 mutant plants, [CO2] shifted from 400 to 800 ppm for 30 min, ~75-85% humidity): -0.037 ± 0.007 mmol H2O m^-2 s^-1 min^-1
initial rate of stomatal conductance change ([3]; pyr1;pyl1;pyl2;pyl4 mutant plants, [CO2] shifted from 365 to 800 ppm for 30 min): −0.035±0.008 mmol H2O m^−2 s^−1 min^−1
initial rate of stomatal conductance change ([3]; pyr1;pyl1;pyl2;pyl4 mutant plants, first 30 min upon shifting [CO2] from 800 to 100 ppm): 0.022±0.002 mmol H2O m^−2 s^−1 min^−1
initial rate of stomatal conductance change ([3]; wild type plants, [CO2] shifted from 365 to 800 ppm for 30 min): −0.038±0.014 mmol H2O m^−2 s^−1 min^−1
initial rate of stomatal conductance change ([3]; wild type plants, [CO2] shifted from 400 to 800 ppm for 30 min, ~75-85% humidity): −0.041±0.01 mmol H2O m^−2 s^−1 min^−1
initial rate of stomatal conductance change ([3]; wild type plants, first 30 min upon shifting [CO2] from 800 to 100 ppm): 0.042±0.013 mmol H2O m^−2 s^−1 min^−1

O=C(O)O [bicarbonate]
relative permeability ratio PHCO3−PCO− [4]: 0.8
current amplitude activated by bicarbonate at a voltage of −146 mV ([2]; Col-0 wild type guard cells, 2 μM [Ca2+]i, n=10): −59±5.9 pA
whole-cell current at a voltage of −144 mV ([2]; Col-0 wild type, extracellular bath perfusion with 13.5 mM total bicarbonate (11.5 mM free HCO3−, 2 mM CO2) pH 7.1, n=6): −17±5 pA
HCO3− activated S-type anion current at a voltage of −146 mV ([2]; Ler wild type guard cells, 2 μM [Ca2+]i, n=7): −51±4.3 pA
activation of anion currents ([2]; ca1;ca4 double mutant guard cells, 13.5 mM total bicarbonate (11.5 mM free [HCO3−]i/2 mM free [CO2]) pH 7.1, 2 μM [Ca2+]i): activated anion currents
activation of S-type anion currents ([2]; ht1-2 guard cells, 5.75 mM free [HCO3−]i and 1 mM free [CO2] pH 7.1, 2 μM [Ca2+]i, P<0.01): significant activation
activation of S-type anion currents ([2]; ht1-2 guard cells, 5.75 mM free [HCO3−]i, [Ca2+]i buffered to 0.15 μM): no significant S-type anion current activation
reversal potential of CO2+HCO3− activated whole-cell currents ([2]; imposed chloride equilibrium potential +31.1 mV, n=8): +24.0±3.6 mV
HCO3− activated S-type anion current at a voltage of −146 mV ([2]; ost1-2 mutant guard cells, 2 μM [Ca2+]i, n=6): −25.2±1.9 pA
current amplitude activated by bicarbonate at a voltage of −146 mV ([2]; ost1-3 mutant guard cells, 2 μM [Ca2+]i, n=6): −24±1.9 pA
anion currents in the presence of bicarbonate ([2]; slac1-1 mutant guard cell protoplasts, 11.5 mM free [HCO3−]i and 2 mM [CO2], similar to control, P>0.05): only small anion currents
I (pA) at −146 mV ([2]; [Ca^2+]i 0.15 μM, free [HCO3]i 11.5 mM): −22.3 ± 2.3^c pA
I (pA) at −146 mV ([2]; [Ca^2+]i 0.6 μM, free [HCO3]i 11.5 mM): −27.3 ± 4.5^f pA
I (pA) at −146 mV ([2]; [Ca^2+]i 2 μM, free [HCO3]i 5.75 mM): −21.8 ± 3.2^d pA
I (pA) at −146 mV ([2]; [Ca^2+]i 2 μM, free [HCO3]i 11.5 mM): −58.7 ± 5.9^e pA
activation of S-type anion currents ([2]; wild type, 13.04 mM free [HCO3−] with 0.46 mM free [CO2] at pH 7.8, 2 μM [Ca2+]i, P<0.05): S-type anion currents were activated
reversal potential of whole-cell S-type anion currents ([2]; wild type, 50 mM total bicarbonate in pipette pH 7.1 (43.4 mM free [HCO3−]i, 6.6 mM free [CO2]), n=4): +26.0±0.9 mV
relative permeability ratio of PHCO3−/PCi− ([2]; wild type, 50 mM total bicarbonate, estimated using the Goldman equation): 0.06±0.01
activation of S-type anion currents by extracellular application ([2]; wild type, bath perfused 2 min with 11.5 mM free [HCO3−] and 2 mM [CO2] at pH 7.1): No large S-type anion currents were activated

CCCC(=O)[O-].[Na+] [sodium butyrate]
ratiometric fluorescence (F470/F440) of Pt-GFP, intracellular pH ([1]; intact epidermes perfused with sodium butyrate-containing MES buffers, pH 5.6): clear shifts
